We go through three molecules from patent US20100093538A1, “Pseudomonas Bacterium” (priority 2008, published 2010).

The subject of test [1] is R. solani. In kind it is cell-based. Particulars: bioautography, Si gel scraped into agar plates inoculated with R. solani.
The test system of test [2] is germinating lettuce seeds. Briefly: Lettuce seed bioassay of EtOAC extracts of cell-free culture filtrates. The settings on record: IAA at 1 μg/ml.

In the case of `CC(=O)c1c(O)cc(O)c(C(C)=O)c1O` [DAPG, 2,4-diacetylphloroglucinol], the Fungal inhibition entry in test [1] is reported as “Rhizoctonia”.
Consider `O=C(O)Cc1c[nH]c2ccccc12` [IAA, indole-3-acetic acid], for which, in test [2], the “Effect on germination of lettuce seeds” value was “inhibits the germination of lettuce seeds”.
As for `O=[N+]([O-])c1c(Cl)cccc1-c1c[nH]cc1Cl` [PRN, 3-chloro-4-[2′ nitro-3′-chlorophenyl]pyrrole], the Fungal inhibition result in test [1] is listed as “Rhizoctonia”.
